Measurements as given in ChEMBL document CHEMBL1201862, “PubChem BioAssay data set” (2004).
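All cell lines were grown in 96-well plates and treated with compound for 48 hours. Here, GI50 denotes the concentration required for 50% inhibition of growth.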 Active and inactive are the calls of the source. Cut-off read from the data, not from the text of the source: active = GI50 up to about 1.1 µM and inactive = higher.

Tests used:
Assay in all cases: DTP human tumour cell line panel, 48 h
CCRF-CEM = test system: CCRF-CEM
PC-3 = test system: PC-3
DU-145 = test system: DU-145
K562 = test system: K562
A498 = test system: A498
NCI-H23 = test system: NCI-H23
786-0 = test system: 786-0
HT-29 = test system: HT-29
HCT-15 = test system: HCT-15
UACC-62 = test system: UACC-62
BT-549 = test system: BT-549
SF-268 = test system: SF-268
HOP-62 = test system: HOP-62
NCI-H460 = test system: NCI-H460
SF-539 = test system: SF-539
IGROV-1 = test system: IGROV-1
SR = test system: SR
OVCAR-5 = test system: OVCAR-5
SN12C = test system: SN12C
MDA-N = test system: MDA-N
SNB-19 = test system: SNB-19
A549 = test system: A549
OVCAR-4 = test system: OVCAR-4
SF-295 = test system: SF-295
RPMI-8226 = test system: RPMI-8226
OVCAR-8 = test system: OVCAR-8
HCC 2998 = test system: HCC 2998
Hs-578T = test system: Hs-578T
NCI-H226 = test system: NCI-H226
SW-620 = test system: SW-620
NCI-H522 = test system: NCI-H522
SK-MEL-5 = test system: SK-MEL-5
MCF7 = test system: MCF7
UO-31 = test system: UO-31
ACHN = test system: ACHN
TK-10 = test system: TK-10
HL-60 = test system: HL-60
KM12 = test system: KM12
OVCAR-3 = test system: OVCAR-3
M14 = test system: M14
Malme-3M = test system: Malme-3M
MDA-MB-231 = test system: MDA-MB-231
SK-MEL-28 = test system: SK-MEL-28
MDA-MB-435 = test system: MDA-MB-435
SK-OV-3 = test system: SK-OV-3
U-251 = test system: U-251
HOP-92 = test system: HOP-92
EKVX = test system: EKVX
HCT-116 = test system: HCT-116
T47D = test system: T47D
UACC-257 = test system: UACC-257
LOX IMVI = test system: LOX IMVI
COLO 205 = test system: COLO 205
RXF 393 = test system: RXF 393
MOLT-4 = test system: MOLT-4
NCI/ADR-RES = test system: NCI/ADR-RES
SK-MEL-2 = test system: SK-MEL-2
SNB-75 = test system: SNB-75
CAKI-1 = test system: CAKI-1

O=C1CC(NC(=O)C(F)(F)F)c2c1csc2Br (centres undefined)
GI50 (CCRF-CEM): 33600 nM (inactive)
GI50 (PC-3): > 100000 nM (inactive)
GI50 (DU-145): 2110 nM (inactive)
GI50 (K562): 48300 nM (inactive)
GI50 (A498): 45300 nM (inactive)
GI50 (NCI-H23): > 100000 nM (inactive)
GI50 (786-0): 26500 nM (inactive)
GI50 (HT-29): > 100000 nM (inactive)
GI50 (HCT-15): 88500 nM
GI50 (UACC-62): > 100000 nM (inactive)
GI50 (BT-549): 44100 nM (inactive)
GI50 (SF-268): 678 nM (active)
GI50 (HOP-62): > 100000 nM (inactive)
GI50 (NCI-H460): 1510 nM (inactive)
GI50 (SF-539): 74100 nM (inactive)
GI50 (IGROV-1): > 100000 nM (inactive)
GI50 (SR): 36900 nM (inactive)
GI50 (OVCAR-5): 2240 nM (inactive)
GI50 (SN12C): 68400 nM (inactive)
GI50 (MDA-N): 33500 nM (inactive)
GI50 (SNB-19): > 100000 nM (inactive)
GI50 (A549): > 100000 nM (inactive)
GI50 (OVCAR-4): 58500 nM (inactive)
GI50 (SF-295): 5770 nM (inactive)
GI50 (RPMI-8226): 32600 nM (inactive)
GI50 (OVCAR-8): > 100000 nM (inactive)
GI50 (HCC 2998): > 100000 nM (inactive)
GI50 (Hs-578T): > 100000 nM (inactive)
GI50 (NCI-H226): > 100000 nM (inactive)
GI50 (SW-620): 31800 nM (inactive)
GI50 (NCI-H522): 54600 nM (inactive)
GI50 (SK-MEL-5): 64900 nM (inactive)
GI50 (MCF7): 2940 nM (inactive)
GI50 (UO-31): 45500 nM (inactive)
GI50 (ACHN): > 100000 nM (inactive)
GI50 (TK-10): 4910 nM (inactive)
GI50 (HL-60): 53100 nM (inactive)
GI50 (KM12): 3030 nM (inactive)
GI50 (OVCAR-3): 2450 nM (inactive)
GI50 (M14): 88300 nM (inactive)
GI50 (Malme-3M): 18800 nM (inactive)
GI50 (MDA-MB-231): > 100000 nM (inactive)
GI50 (SK-MEL-28): > 100000 nM (inactive)
GI50 (MDA-MB-435): 56500 nM (inactive)
GI50 (SK-OV-3): > 100000 nM (inactive)
GI50 (U-251): > 100000 nM (inactive)
GI50 (HOP-92): 35000 nM (inactive)
GI50 (EKVX): 14800 nM (inactive)
GI50 (HCT-116): 32800 nM (inactive)
GI50 (T47D): 3400 nM (inactive)
GI50 (UACC-257): > 100000 nM (inactive)
GI50 (LOX IMVI): 60300 nM (inactive)
GI50 (COLO 205): > 100000 nM (inactive)
GI50 (RXF 393): 2870 nM (inactive)
GI50 (MOLT-4): 31500 nM (inactive)
GI50 (NCI/ADR-RES): > 100000 nM (inactive)
GI50 (SK-MEL-2): > 100000 nM (inactive)

CO[C@@H]1C[C@H](OC(N)=O)[C@@H]2C=C[C@@H]3/C=C(C)/C=C/[C@@H](C)[C@H]([C@H](C)[C@H](O)[C@@H](C)NC(C)=O)OC(=O)/C=C/C=C(C)\C=C\[C@]3(C)[C@@H]2C1
GI50 (CCRF-CEM): 322 nM (active)
GI50 (PC-3): < 10 nM (active)
GI50 (DU-145): < 10 nM (active)
GI50 (K562): 10.1 nM (active)
GI50 (A498): < 10 nM (active)
GI50 (NCI-H23): 522 nM (active)
GI50 (786-0): < 10 nM (active)
GI50 (HT-29): < 10 nM (active)
GI50 (HCT-15): < 10 nM
GI50 (UACC-62): < 10 nM (active)
GI50 (BT-549): 2160 nM (inactive)
GI50 (SF-268): 767 nM (active)
GI50 (HOP-62): < 10 nM (active)
GI50 (NCI-H460): < 10 nM (active)
GI50 (SF-539): < 10 nM (active)
GI50 (IGROV-1): < 10 nM (active)
GI50 (SR): < 10 nM (active)
GI50 (OVCAR-5): 1420 nM (inactive)
GI50 (MDA-N): < 10 nM (active)
GI50 (SNB-19): 1500 nM (inactive)
GI50 (A549): < 10 nM (active)
GI50 (OVCAR-4): < 10 nM (active)
GI50 (SF-295): < 10 nM (active)
GI50 (RPMI-8226): < 10 nM (active)
GI50 (OVCAR-8): 220 nM (active)
GI50 (SNB-75): < 10 nM (active)
GI50 (HCC 2998): < 10 nM (active)
GI50 (Hs-578T): < 10 nM (active)
GI50 (NCI-H226): < 10 nM (active)
GI50 (SW-620): < 10 nM (active)
GI50 (NCI-H522): < 10 nM (active)
GI50 (SK-MEL-5): < 10 nM (active)
GI50 (MCF7): < 10 nM (active)
GI50 (UO-31): < 10 nM (active)
GI50 (ACHN): < 10 nM (active)
GI50 (CAKI-1): < 10 nM (active)
GI50 (HL-60): < 10 nM (active)
GI50 (KM12): < 10 nM (active)
GI50 (OVCAR-3): < 43.6 nM (active)
GI50 (M14): < 10 nM (active)
GI50 (Malme-3M): < 10 nM (active)
GI50 (MDA-MB-231): < 31.6 nM (active)
GI50 (SK-MEL-28): < 10 nM (active)
GI50 (MDA-MB-435): < 10 nM (active)
GI50 (SK-OV-3): < 50.4 nM (active)
GI50 (U-251): < 10 nM (active)
GI50 (HOP-92): < 10 nM (active)
GI50 (EKVX): 1240 nM (inactive)
GI50 (HCT-116): < 10 nM (active)
GI50 (T47D): < 10 nM (active)
GI50 (UACC-257): 35.4 nM (active)
GI50 (LOX IMVI): < 10 nM (active)
GI50 (COLO 205): < 10 nM (active)
GI50 (RXF 393): < 10 nM (active)
GI50 (MOLT-4): 332 nM (active)
GI50 (NCI/ADR-RES): < 10 nM (active)
GI50 (SK-MEL-2): 1280 nM (inactive)
